According to patent US9610461B2, “Combination of a MC1R receptor agonist and UVB for the treatment and/or prevention of pigmentation disorders” (GALDERMA RESEARCH & DEVELOPMENT, priority 2012, dated 2017):

Legend:
mouse SKH2 [1] = experiment: In vivo pro-pigmenting activity by topical route with NB-UVB, clinical score of pigmentation; settings: 8% topical on the back of SKH2 mice, 43 days, in combination with NB-UVB irradiation (60 mJ/cm2); versus irradiated group treated with the vehicle
Protocol: (§1) In mice, melanocytes are not present in the epidermis of hair-covered areas but are mainly present in the hair follicles. Pigmentation can be induced by irradiation with UVB in combination with topical or oral agents. The pigmentation changes can be quantified by various means such as clinical score pigmentation and pigmentation measurement by image analysis.
(§2) The evaluation of the MC1R receptor agonists pro-pigmenting activity in combination with NB-UVB irradiation (60 mJ/cm2) is performed by topical application on the back of the mouse SKH2 during 43 days with MC1R agonist compound A at 8% or MC1R agonist compound B at 8% in combination with NB-UVB radiation.
(§3) Practically, the animals were irradiated using the system Biospectra equipped NB-UVB lamps (peak emission maximum at 312 nm) irradiation at 3 times per week at 60 mJ/cm^2 on Monday, Wednesday and Friday. The treatment is carried out 5 days a week and 50 μl of the test product (compounds A or B) is diluted in the vehicle and applied on the back. In the case of associations with radiation, the compounds are administered after irradiation.
(§4) Then, the pigmentation changes is quantified by clinical score pigmentation and pigmentation measurement by image analysis.
The clinical score of animals is performed 1 time per week before irradiation. The pigmentation is evaluated with a score on a scale of 0 to 4. […]

mouse SKH2 [2] = experiment: In vivo pro-pigmenting activity by topical route with NB-UVB, quantification of pigmentation by image analysis at the end of study; settings: 8% topical on the back of SKH2 mice, in combination with NB-UVB irradiation (60 mJ/cm2)
Protocol: as §1, §2, §3, §4
At the end of the study, for each animal, two digital photographs of the skin of the back are made with a high quality dermascope and digital camera such as the LiteScope™. […]

`CCOC(=O)C1(C2CCCCC2)CCN(C(=O)[C@@H](Cc2ccc(OC)cc2)NC(=O)NCCc2c[nH]cn2)CC1` [Compound A, 4-Cyclohexyl-1-[(R)-2-{3-[2-(1H-imidazol-4-yl)-ethyl]-ureido}-3-(4-methoxy-phenyl)-propionyl]-piperidine-4-ethyl-carboxylate] was tested, and the “pigmentation of the skin (clinical score of pigmentation, FIGS. 1 and 2)” value (mouse SKH2 [1]) was “significantly increases the pigmentation of the skin” and the “pigmentation level at the end of the study by image analysis (FIG. 3)” value (mouse SKH2 [2]) was “synergistic effect is confirmed”.
With `COc1ccc(C[C@@H](NC(=O)CCc2nc[nH]c2C)C(=O)N2CC(OCC3CC3)(c3ccccc3C)C2)cc1` [compound B, N—[(R)-2-(3-Cyclopropylmethoxy-3-o-tolyl-azetidin-1-yl)-1-(4-methoxy-benzyl)-2-oxo-ethyl]-3-(5-methyl-1H-imidazol-4-yl)-propionamide] the “pigmentation of the skin (clinical score of pigmentation, FIGS. 1 and 2)” value (mouse SKH2 [1]) was “significantly increases the pigmentation of the skin”.
